Data as given in publication PMC3914206.

What was measured:
Type in all cases: binding
Conditions in all cases: Compound Concentration 10 µM
panel of 442 kinases [1] = biological target: T1, panel of 442 kinases (Homo sapiens, UniProt Q9H1R3)
T1 construct: purchased KINOMEscan
Description: (§1) We assessed the selectivity of members of this scaffold using the KINOMEscan methodology across a near comprehensive panel of 442 kinases [[18,27]].

panel of 442 kinases [2] = biological target: T2, panel of 442 kinases (Homo sapiens, UniProt Q9Y6E0)
T2 construct: purchased KINOMEscan
Description: as §1

panel of 442 kinases [3] = biological target: T3, panel of 442 kinases (Homo sapiens, UniProt Q9C098)
T3 construct: purchased KINOMEscan
Description: as §1

panel of 442 kinases [4] = biological target: T4, panel of 442 kinases (Homo sapiens, UniProt Q15303)
T4 construct: purchased KINOMEscan
Description: as §1

T4 sequence (Q15303 26-1308): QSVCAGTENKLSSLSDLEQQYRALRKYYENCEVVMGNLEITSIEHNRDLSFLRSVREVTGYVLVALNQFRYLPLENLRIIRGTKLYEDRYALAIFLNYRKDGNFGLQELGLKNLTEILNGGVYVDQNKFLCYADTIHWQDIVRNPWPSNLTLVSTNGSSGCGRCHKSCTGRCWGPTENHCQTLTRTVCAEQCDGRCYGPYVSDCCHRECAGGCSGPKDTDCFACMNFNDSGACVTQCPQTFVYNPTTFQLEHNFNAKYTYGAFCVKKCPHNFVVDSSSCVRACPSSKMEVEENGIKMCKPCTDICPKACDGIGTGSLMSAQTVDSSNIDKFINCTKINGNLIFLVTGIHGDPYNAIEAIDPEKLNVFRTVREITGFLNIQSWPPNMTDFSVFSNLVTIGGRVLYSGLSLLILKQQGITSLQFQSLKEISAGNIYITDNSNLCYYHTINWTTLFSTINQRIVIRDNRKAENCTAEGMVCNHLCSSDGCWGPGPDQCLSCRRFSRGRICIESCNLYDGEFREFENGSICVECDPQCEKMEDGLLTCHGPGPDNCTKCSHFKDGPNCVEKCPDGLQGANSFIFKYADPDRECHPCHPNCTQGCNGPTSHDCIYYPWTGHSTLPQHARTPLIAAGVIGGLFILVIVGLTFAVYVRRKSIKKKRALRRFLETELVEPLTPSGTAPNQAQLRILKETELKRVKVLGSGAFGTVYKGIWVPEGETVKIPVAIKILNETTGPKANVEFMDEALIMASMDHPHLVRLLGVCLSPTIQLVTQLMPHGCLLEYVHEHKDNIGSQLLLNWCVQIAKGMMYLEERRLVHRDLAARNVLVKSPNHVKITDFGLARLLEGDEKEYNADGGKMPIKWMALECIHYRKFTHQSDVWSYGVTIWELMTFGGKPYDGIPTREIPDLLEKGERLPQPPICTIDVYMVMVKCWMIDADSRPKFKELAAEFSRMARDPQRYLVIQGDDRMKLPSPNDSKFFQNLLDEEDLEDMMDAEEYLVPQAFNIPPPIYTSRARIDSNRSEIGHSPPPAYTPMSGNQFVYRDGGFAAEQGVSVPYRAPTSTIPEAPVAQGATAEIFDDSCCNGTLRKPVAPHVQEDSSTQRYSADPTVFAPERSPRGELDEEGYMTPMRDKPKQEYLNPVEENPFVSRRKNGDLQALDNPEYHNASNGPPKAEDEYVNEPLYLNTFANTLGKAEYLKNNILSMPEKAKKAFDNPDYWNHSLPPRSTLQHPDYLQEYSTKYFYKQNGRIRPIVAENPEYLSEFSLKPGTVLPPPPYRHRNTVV
T1 sequence (Q9H1R3 whole entry): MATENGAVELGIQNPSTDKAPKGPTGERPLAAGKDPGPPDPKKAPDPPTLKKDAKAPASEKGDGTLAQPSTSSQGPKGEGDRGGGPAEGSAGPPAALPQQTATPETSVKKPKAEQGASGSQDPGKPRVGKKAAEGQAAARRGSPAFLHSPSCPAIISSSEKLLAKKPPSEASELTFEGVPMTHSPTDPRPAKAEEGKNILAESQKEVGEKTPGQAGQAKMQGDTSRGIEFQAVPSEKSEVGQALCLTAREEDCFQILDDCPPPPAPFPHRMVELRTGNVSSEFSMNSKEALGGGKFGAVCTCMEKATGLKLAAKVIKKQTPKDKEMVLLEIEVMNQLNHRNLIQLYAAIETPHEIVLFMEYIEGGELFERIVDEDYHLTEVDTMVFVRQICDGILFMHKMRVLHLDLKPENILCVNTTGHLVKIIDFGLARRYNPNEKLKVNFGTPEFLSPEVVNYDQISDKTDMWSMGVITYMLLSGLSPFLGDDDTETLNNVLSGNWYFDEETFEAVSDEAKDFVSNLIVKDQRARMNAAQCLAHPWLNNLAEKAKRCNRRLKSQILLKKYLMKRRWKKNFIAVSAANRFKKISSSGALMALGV
T2 sequence (Q9Y6E0 whole entry): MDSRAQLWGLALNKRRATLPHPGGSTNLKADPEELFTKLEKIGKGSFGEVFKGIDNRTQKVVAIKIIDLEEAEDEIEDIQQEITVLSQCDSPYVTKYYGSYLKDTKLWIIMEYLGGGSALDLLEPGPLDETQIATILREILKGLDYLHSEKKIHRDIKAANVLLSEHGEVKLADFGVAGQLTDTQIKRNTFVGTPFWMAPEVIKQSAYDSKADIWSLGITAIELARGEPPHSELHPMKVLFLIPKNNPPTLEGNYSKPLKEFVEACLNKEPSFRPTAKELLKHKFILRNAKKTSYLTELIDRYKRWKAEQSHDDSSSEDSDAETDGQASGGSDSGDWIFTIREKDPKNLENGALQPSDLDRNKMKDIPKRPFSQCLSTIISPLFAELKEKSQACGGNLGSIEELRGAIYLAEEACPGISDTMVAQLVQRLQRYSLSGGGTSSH
T3 sequence (Q9C098 whole entry): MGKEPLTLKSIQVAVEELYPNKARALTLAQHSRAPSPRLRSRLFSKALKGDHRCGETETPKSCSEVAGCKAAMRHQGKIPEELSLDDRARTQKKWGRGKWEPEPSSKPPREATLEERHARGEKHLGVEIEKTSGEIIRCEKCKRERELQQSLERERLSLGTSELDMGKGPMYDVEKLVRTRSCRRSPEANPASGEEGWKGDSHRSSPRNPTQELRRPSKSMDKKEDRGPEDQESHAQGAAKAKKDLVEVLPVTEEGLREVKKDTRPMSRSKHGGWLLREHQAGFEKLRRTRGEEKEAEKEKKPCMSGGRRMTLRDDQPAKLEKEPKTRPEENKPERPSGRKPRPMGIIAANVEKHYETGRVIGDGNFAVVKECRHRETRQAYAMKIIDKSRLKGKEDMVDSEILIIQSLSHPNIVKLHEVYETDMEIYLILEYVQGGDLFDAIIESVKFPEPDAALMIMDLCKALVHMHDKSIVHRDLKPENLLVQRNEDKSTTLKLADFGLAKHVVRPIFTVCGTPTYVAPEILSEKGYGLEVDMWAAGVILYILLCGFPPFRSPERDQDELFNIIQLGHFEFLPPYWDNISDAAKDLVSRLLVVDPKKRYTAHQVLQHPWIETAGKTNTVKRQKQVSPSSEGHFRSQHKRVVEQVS

## COc1cc(C(=O)N2CCC(N3CCN(C)CC3)CC2)ccc1Nc1ncc2c(n1)N(C1CCCC1)c1ccccc1C(=O)N2C [Compound 25, 11-cyclopentyl-2-((2-methoxy-4-(4-(4-methylpiperazin-1-yl)piperidine-1-carbonyl)phenyl)amino)-5-methyl-5H-benzo[e]pyrimido[5,4-b][1,4]diazepin-6(11H)-one]
Panel of 442 kinases [1]
  KINOMEscan: MYLK2: 100
Panel of 442 kinases [2]
  KINOMEscan: MST3: 88
Panel of 442 kinases [3]
  KINOMEscan: DCAMKL3: 100
Panel of 442 kinases [4]
  KINOMEscan: ERBB4: 100

## COc1cc(C(=O)N2CCC(N3CCN(C)CC3)CC2)ccc1Nc1ncc2c(n1)N1CCc3cccc(c31)C(=O)N2C [Compound 24]
Panel of 442 kinases [1]
  KINOMEscan: MYLK2: 85
Panel of 442 kinases [2]
  KINOMEscan: MST3: 73

## COc1cc(C(=O)N2CCC(N3CCN(C)CC3)CC2)ccc1Nc1ncc2c(n1)N(C)c1ccccc1C(=O)N2C [15 (LRRK2-IN-1)]
Panel of 442 kinases [1]
  KINOMEscan: MYLK2: 98
Panel of 442 kinases [2]
  KINOMEscan: MST3: 87
Panel of 442 kinases [3]
  KINOMEscan: DCAMKL3: 90
Panel of 442 kinases [4]
  KINOMEscan: ERBB4: 100

## CCOc1cc(C(=O)N2CCC(N3CCN(C)CC3)CC2)ccc1Nc1ncc2c(n1)N(C1CCCC1)c1ccccc1C(=O)N2C [Compound 26]
Panel of 442 kinases [1]
  KINOMEscan: MYLK2: 100
Panel of 442 kinases [2]
  KINOMEscan: MST3: 100
Panel of 442 kinases [3]
  KINOMEscan: DCAMKL3: 92
Panel of 442 kinases [4]
  KINOMEscan: ERBB4: 100
